Our source for the IC50 values is publication PMC10491346, “Enzyme Mechanistic Studies of NMA1982, a Protein Tyrosine Phosphatase and Potential Virulence Factor in Neisseria meningitidis” (Research Square, 2023).

The target in the experiment is T1, NMA1982 (Neisseria meningitidis, UniProt A1KVD0).
T1 construct: gene NMC1647
Description: biochemical.

T1 sequence (A1KVD0 entry or part of it): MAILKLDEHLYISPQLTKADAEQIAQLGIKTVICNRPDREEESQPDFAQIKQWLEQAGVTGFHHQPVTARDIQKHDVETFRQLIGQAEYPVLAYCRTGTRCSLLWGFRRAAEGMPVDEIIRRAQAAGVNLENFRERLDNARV

Molecule `[O]=[V]([OH])([OH])[OH]` [sodium orthovanadate] showed an IC50 of 161 µM.
